“Also recorded” adds a separate entry of the source.
Key:
PPARγ = target: T1, PPARγ (Homo sapiens, UniProt P37231); experiment: PPAR isoform luciferase reporter in transfected RIE cells; format: cell-based; design: expressed in transfected cells; host or cells: RIE (rat small intestinal cell line); conditions: RIE cells transfected with PPARγ and PPRE3-tk-luc, 10 nM
T1 sequence (P37231 1-505): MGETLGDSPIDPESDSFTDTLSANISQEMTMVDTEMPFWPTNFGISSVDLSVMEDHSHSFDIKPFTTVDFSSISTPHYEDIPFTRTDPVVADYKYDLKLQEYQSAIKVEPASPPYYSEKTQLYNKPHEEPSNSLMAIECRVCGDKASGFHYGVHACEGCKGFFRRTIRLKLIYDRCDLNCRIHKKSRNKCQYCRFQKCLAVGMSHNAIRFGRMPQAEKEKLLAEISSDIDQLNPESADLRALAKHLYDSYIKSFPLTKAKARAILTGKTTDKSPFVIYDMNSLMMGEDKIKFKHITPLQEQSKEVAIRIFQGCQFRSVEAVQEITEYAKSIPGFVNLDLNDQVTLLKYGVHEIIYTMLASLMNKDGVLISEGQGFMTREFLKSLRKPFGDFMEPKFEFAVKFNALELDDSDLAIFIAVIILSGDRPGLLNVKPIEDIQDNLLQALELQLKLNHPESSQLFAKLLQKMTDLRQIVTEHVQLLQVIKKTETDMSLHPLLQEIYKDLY
From the text: Increased luciferase activity was only observed in the presence of PPARγ and PPRE3-tk-luc.

DRO cells [1] = experiment: Western blot of RhoB, RhoA, p21, cyclin E polypeptides in DRO cells; format: cell-based, human
Method: RhoB and p21^WAF1/CIP1 polypeptide expression also was examined in ATC cells to determine the time course of induction of each polypeptide following stimulation with a PPARγ agonist (FIG. 6). […]. Polypeptide lysates were prepared and examined for RhoB, RhoA and β-actin expression. […]; FIG. 6A).
The time course for induction of RhoB and p21^WAF1/CIP1 was determined using Western blotting.
DRO90-1 (DRO) and ARO81 (ARO) cells were derived from primary cultures of human anaplastic thyroid carcinoma tumors that were obtained from Dr. G. J. Juillard (University of California-Los Angeles, Los Angeles, Calif.), and KTC-2 and KTC3 cells were obtained from Dr. Junichi Kurebayashi (Podtcheko et al., J. Clin. Endocrinol. Metab., 88:1889-1896 (2003) and Pushkarev et al., Molecular mechanisms of the Effects of Low Concentrations of Taxol in Anaplastic Thyroid Cancer Cells. Endocrinology: en. 2004-0127 (2004)). Cells were cultured in RPMI 1640 medium (Cellgro, Herndon Va.) supplemented with 10% charcoal-stripped fetal bovine serum (Hyclone), non-essential amino acids, sodium pyruvate, and penicillin-streptomycin-amphotericin B at 37° C. in a humidified atmosphere with 5% CO^2. Charcoal-stripped serum was used to exclude endogenous PPAR ligands contained in serum. For proliferation studies, cells were plated in triplicate in 12-well culture plates at initial concentrations of 2×10^4 cells/well. After overnight incubation, cells were treated with 10 nM RS5444 or DMSO diluent (Sigma) for 6 days with medium, and drug changed every 48 hours. After 6 days, cells were washed with PBS (Cellgro), trypsinized, and counted by Beckman Coulter Counter (Beckman Instruments, Fullerton Calif.). For morphology studies, cells were plated in 12 well plates at initial concentrations of 2.5×10^4 cells/well. Cells were treated with either DMSO or 10 nM RS5444 (24 hours). After treatment, phase images were obtained on an inverted microscope. For real time PCR studies, cells were plated in 60 mm plates at 50% confluence and treated with 10 nM RS5444 for indicated incubation periods. […].
Cells were collected and lysed in RIPA buffer containing 50 mM Tris, 5 mM EDTA, 150 mM NaCl, 0.1% SDS, 0.5% Deoxycholate, 1% NP40, and protease inhibitor cocktail (Roche) followed by centrifugation. Excised tumor tissues were lysed in 50 mM Tris pH 8.0+1% SDS. Collected supernatants were, analyzed for protein concentration using Pierce's BCA assay, with 25 μg protein loaded per gel lane (Invitrogen) with later transfer to Immobilon-P membranes. The membranes were hybridized with antibodies (Santa Cruz, Cell Signaling, Sigma-Aldrich, St. Louis Mo.) as indicated overnight at 4° C. followed by treatment with species-specific horseradish peroxidase IgG (Jackson labs) for 45 minutes at room temperature. Detection was performed using Supersignal West Pico chemoluminescence kit (Pierce). Quantification of bands was performed in triplicate using Image Quant 5.2 (Molecular Dynamics, Sunnyvale Calif.).

DRO cells [2] = experiment: Clonogenic growth of DRO cells in soft agar; format: cell-based, human; conditions: two weeks
Method: The ability of RS5444 to inhibit clonogenic growth of DRO cells in soft agar was also examined (FIG. 3C). DRO cells were plated in triplicate on soft agar for colony formation and treated with the indicated doses of RS5444. Colonies were stained and counted after two weeks.

DRO = experiment: ATC (DRO) tumor growth in athymic nude mice, RS5444 in diet; format: in vivo; conditions: for tumor growth inhibition: started one week prior to DRO implantation
Method: RS5444 was added to the rodent diet one week prior to tumor implantation with DRO. […] Suspensions of 1×10^6/0.1 mL DRO or ARO cells in RPMI medium were injected subcutaneously in one flank of 3 to 4 week old athymic female nude mice. […] Mice weighed between 20-25 grams and consumed on average 4 grams of food per day (1 mg/day of RS5444).

activation of PPARγ (luciferase activity) (PPARγ): specifically activates PPARγ
Compound: Cc1cc(Oc2ccc3nc(COc4ccc(CC5SC(=O)NC5=O)cc4)n(C)c3c2)cc(C)c1N (centres unmarked) [RS5444]
RhoA polypeptide expression (Western blot) (DRO cells [1]; 10 nM RS5444): no change in RhoA polypeptide expression; also recorded: no change in RhoA polypeptide levels
Cyclin E levels (Western blot) (DRO cells [1]; 10 nM, at 24 hours, not at earlier time points): down-regulated
RhoB polypeptide level, time course (Western blot) (DRO cells [1]; 10 nM, up to 24 hours): significantly elevated at 6 hours
p21WAF1/CIP1 polypeptide level, time course (Western blot) (DRO cells [1]; 10 nM, up to 24 hours): significantly elevated at 6 hours
RhoB polypeptide levels (Western blot) (DRO cells [1]; 24 hours after single treatment, 10 nM RS5444, 100 nM rosiglitazone, 1 μM troglitazone): induced most strongly; also recorded: induced RhoB polypeptide levels
RhoB and p21 expression (Western blot) (DRO cells [1]; 24 hours, 10 nM RS5444, 1 ng/mL FK-228, 10 μM FTI-277): upregulation of both RhoB and p21 expression
inhibition of colony formation in soft agar (DRO cells [2]; 1 nM): 63%
inhibition of colony formation in soft agar (DRO cells [2]; 10 nM): 98%
inhibition of colony formation in soft agar (DRO cells [2]; 100 nM): 99.4%
tumor growth inhibition (DRO; 0.00025% in diet): No inhibition of tumor growth
tumor growth inhibition (DRO; 0.0025% in diet): 54.5%
mice that did not form tumors (DRO; 0.025% diet group): 5 of 10
tumor growth inhibition (DRO; 0.025% in diet): 89.7%

Reference: US20080167532A1, “ASSESSING CANCER TREATMENT RESPONSIVENESS” (Mayo Foundation for Medical Education and Research, priority 2006, published 2008)
